Test results taken from the supplement of paper PMC10307832.

How the values were obtained:
[1] = compound: Cc1ccc2nc(NCCN)c3ncc(C)n3c2c1; test: relative viability (nuclei count vs DMSO), 5 days (fraction); higher = more cells survive
Procedure, shortened: (§1)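 Five library-drug doses spaced by √10 were pinned onto vehicle-anchored 1536-well plates of lung cancer cell lines that had been kept overnight at 37 °C. Cells went 5 days without medium change, then were fixed, permeabilised and Hoechst-stained together, imaged at 4× and counted by MetaXpress. Viability is the ratio of treated-well to vehicle-well nuclei, taken as a median over plates. Plates required control CV below 25% and at least one doubling.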

Salubrinal = compound: O=C(/C=C/c1ccccc1)NC(NC(=S)Nc1cccc2cccnc12)C(Cl)(Cl)Cl [Salubrinal]; test: as above
Procedure, shortened: as §1

| Cell Line | relative viability ([1]; 0.04 µM) | relative viability ([1]; 0.1265 µM) | relative viability ([1]; 0.4 µM) | relative viability ([1]; 1.265 µM) | relative viability ([1]; 4 µM) | relative viability (Salubrinal; 0.08 µM) | relative viability (Salubrinal; 0.253 µM) | relative viability (Salubrinal; 0.8 µM) | relative viability (Salubrinal; 2.53 µM) | relative viability (Salubrinal; 8 µM) |
| --- | --- | --- | --- | --- | --- | --- | --- | --- | --- | --- |
| NCI-H2228 | 1.15 | 0.992 | 1.03 | 0.915 | 0.838 | 1.23 | 0.757 | 1.21 | 1.04 | 0.968 |
| NCI-H2342 | 1.19 | 1.08 | 0.989 | 1.08 | 0.841 | 1.04 | 0.88 | 1.07 | 1.03 | 0.858 |
| NCI-H2347 | 1.06 | 1.12 | 0.911 | 0.986 | 0.962 | 0.94 | 1.03 | 1.15 | 1.08 | 1.07 |
| NCI-H2405 | 1.02 | 1.01 | 1.03 | 1.05 | 0.915 | 1.01 | 1.03 | 1.09 | 1.03 | 0.966 |
| NCI-H3122 | 0.998 | 0.988 | 0.999 | 1.06 | 1.01 | 1.08 | 1 | 1.09 | 1.05 | 1.01 |
| PC-3 [JPC-3] | 1.01 | 1.05 | 1 | 1.09 | 0.998 | 1.05 | 0.915 | 1.16 | 1.04 | 0.969 |
| PC-14 | 1.04 | 0.963 | 0.927 | 0.917 | 0.671 | 1.11 | 0.96 | 1.13 | 1 | 0.862 |
| RERF-LC-KJ | 1.03 | 0.996 | 0.93 | 0.938 | 0.823 | 1.05 | 1.02 | 1.04 | 0.98 | 0.888 |
| SK-LU-1 | 1.06 | 1 | 1.03 | 1.05 | 0.976 | 1.11 | 0.905 | 1.19 | 1.11 | 0.878 |
| SK-MES-1 | 1.05 | 1.01 | 0.984 | 1.01 | 0.992 | 1.14 | 0.997 | 1.09 | 0.988 | 0.945 |
| SW 900 | 0.878 | 0.897 | 0.584 | 0.779 | 0.941 | 1.06 | 0.718 | 0.941 | 0.933 | 1.04 |
| SW 1573 | 0.989 | 1.02 | 1 | 1.05 | 0.776 | 1.07 | 1.05 | 1.03 | 0.998 | 0.994 |
